Assay results taken from ChEMBL document CHEMBL1158880, “New cembranoid diterpenes and a geranylgeraniol derivative from the common Caribbean sea whip Eunicea succinea” (1997).

How the values were obtained:
Format in all cases: functional
[1] = system: SNB-75; assay: Cytotoxicity against human SNB75 cells
[2] = system: M14; assay: Cytotoxicity against human M14 cells
[3] = Cytotoxicity against human Hs 578T cells

Compound: C=C(C)[C@H]1CC/C(C)=C/CC[C@@]2(C)O[C@@H]2CC/C(COC(C)=O)=C\[C@@H]1O [ASPERDIOL ACETATE]
- GI50 [1]: 0.625 µM
- GI50 [2]: 8.28 µM
- GI50 [3]: 8.28 µM
